Test results published in US8399498B2, “Animal ectoparasite-controlling agent” (Sumitomo Chemical Company, Limited, priority 2010, dated 2013).

Tests used:
Type in all cases: in vivo
[1] = system: Haemaphysalis longicornis; assay: Dropping application against dog-infested ticks; settings: dog (beagle), dropping application on skin of neck and back, 20 mg/kg
Procedure: The previous day before dropping application, 100 test ticks (Haemaphysalis longicornis, young ticks) were deposited on a dog (beagle). Before the dropping application, infested ticks were counted.
Each (1.5 g) of the present hydrazide compound (1) and Comparative compound (52) was dissolved in diethylene glycol monoethyl ether (6.0 g) to prepare a test solution. Said test solution was directly dropped on the skin of the neck and back of the dog while pushing aside fur thereon at a rate of 0.1 ml per 1 kg of the dog's body weight (dose amount: 20 mg/kg). This is referred to as a test group. On the other hand, diethylene glycol monoethyl ether alone was applied dropwise to a placebo group.
Two (2) days after the application, the number of living ticks, which were infesting the dogs, was examined. When the examination was completed, all infested ticks were removed from the dogs.
The infestation rate and control rate were calculated by the following formulae:
Method of calculating infestation rate and control rate at the initial stage (2 days) after the application: Infestation rate (%) at X days after application=(number of living ticks at X days/number of living ticks before application)×100 Control rate (%) at X days after application=(infestation rate of test group before application−infestation rate of test group at X days)/infestation rate of test group before application×100 […]

[2] = system: Haemaphysalis longicornis; assay: Oral administration against mouse-infested ticks; settings: test solution 20 mg/10 mL at 10 mL per 1 kg body weight, 2 days after administration
Procedure: The previous day before oral administration, 30 test ticks (Haemaphysalis longicornis, young ticks) were deposited on a mouse. Before the oral administration, uninfested ticks were removed.
The present hydrazide compound (1) (20 mg) was dissolved in dimethylformamide (680 mg), and thereto a corn oil was added to prepare a test solution (10 mL). Said test solution was orally administered to the mouse at the rate of 10 mL per 1 kg of the body weight of the mouse with a gastric sonde. To a control group, a 7% dimethylformamide/corn oil solution alone was orally administered. Each administration was repeated 3 times per group.
Two (2) days after the administration, the number of dead ticks was examined and the mortality was calculated by the following formula: Mortality (%)=100×(number of dead ticks/infested ticks before oral administration)

[3] = system: Haemaphysalis longicornis; assay: Dropping application against mouse-infested ticks; settings: 0.1% w/v solution 200 μL dropwise on whole body surface, 2 days after application
Procedure: The previous day before dropping application, 30 test ticks (Haemaphysalis longicornis, young ticks) were deposited on a mouse. Before the dropping application, uninfested ticks were removed.
The present hydrazide compound (1) (5 mg) was dissolved in a mixture (5 mL) of propylene carbonate and diethylene glycol monoethyl ether in equal amounts to prepare a 0.1% w/v solution. Said solution (200 μL) was applied dropwise to the whole body surface of a mouse with a pipette. To a control group, the mixture (200 μL) alone was applied. Each application was repeated 3 times per group.
Two (2) days after the application, the number of dead ticks was examined and the mortality was calculated by the following formula: Mortality (%)=100×(number of dead ticks/infested ticks before dropping application)

Structure (SMILES) | Tick control rates (%) at 2 days after the application [1] | Mortality [2] | Mortality [3]
CC(=O)NNc1cc(C2=NOC(c3cc(Cl)cc(Cl)c3)(C(F)(F)F)C2)ccc1Cl (stereo not shown) [Comparative compound (52), N′-{5-[5-(3,5-dichlorophenyl)-5-trifluoromethyl-4,5-dihydroisoxazol-3-yl]-2-chlorophenyl}acetohydrazide, reference compound] | 44% |  | 
COCC(=O)NNc1cc(C2=NOC(c3cc(Cl)cc(Cl)c3)(C(F)(F)F)C2)ccc1Cl (stereo not shown) [Compound (1), N′-{2-chloro-5-[5-(3,5-dichlorophenyl)-5-trifluoromethyl-4,5-dihydroisoxazol-3-yl]phenyl}methoxyacetohydrazide] | 94% | ≥ 90% | ≥ 70%
